Measured values reported in patent US20240116845A1, “INDENE COMPOUNDS, PHARMACEUTICAL COMPOSITIONS THEREOF, AND THEIR THERAPEUTIC APPLICATIONS” (NucMito Pharmaceuticals Co., Ltd., priority 2021, published 2024).

What was measured:
Format in all cases: cell-based
[1] = test system: A431 (epidermoid carcinoma); test: Antiproliferative activity, CCK-8 cell viability; conditions: Homo sapiens, A-431, 72 h, read-out: Inhibition of Cancerous Cells, A431; for inhibition at 3.3 µM: compound concentration of 3.3 μM; for inhibition at 10 µM: compound concentration of 10 μM; for inhibition at 30 µM: compound concentration of 30 μM
Experimental: (§1) The antiproliferative activity of a compound was determined in the following cell lines: MDA-MB-231 (breast cancer), HepG2 (liver cancer), SW480 (colon cancer), B16F10 (malignant melanoma), A431 (epidermoid carcinoma), A549 (lung adenocarcinoma), and HeLa (cervical cancer). MDA-MB-231, HepG2, SW480, B16F10, and A431 cells were cultured in Dulbecco's modified Eagle's medium (DMEM) containing 10% fetal bovine serum (FBS). HeLa cells were cultured in MEM/EBSS (MEM) containing 10% FBS. A549 cells were maintained in Kaighn's modification of Ham's F-12 medium containing 10% FBS. The Cell Counting Kit-8 (CCK-8) assay was used to determine the cell viability of cells following treatment with the compound.
(§2) Briefly, cells were seeded in a 96-well plate at a density of 2,000-5,000 cells/well. Following attachment, the cells were treated with the compound in media at a compound concentration of 3.3 μM, 10 μM, or 30 μM, or DMSO as a control. After the cells were incubated at 37° C. for 72 h, the CCK-8 solution (10 μL) was added to each well. After incubation at 37° C. for 4 h, the absorbance value of each well was determined using a multi-well plate reader at 450 nm. The percentage of cell viability was determined with respect to the DMSO-treated cells. The results were summarized in Table 2-4 below, wherein A represents no less than 50% inhibition of cell growth; B represents less than 50% but no less than 30% inhibition of cell growth; C represents less than 30% inhibition of cell growth.

SW480 (colon cancer) = test: Antiproliferative activity, CCK-8 cell viability; conditions: Homo sapiens, 72 h, read-out: Inhibition of Cancerous Cells, SW480; for inhibition at 3.3 µM: compound concentration of 3.3 μM; for inhibition at 10 µM: compound concentration of 10 μM; for inhibition at 30 µM: compound concentration of 30 μM
Experimental: as §1, §2

HeLa (cervical cancer) = test: Antiproliferative activity, CCK-8 cell viability; conditions: Homo sapiens, 72 h, read-out: Inhibition of Cancerous Cells, HELA; for inhibition at 3.3 µM: compound concentration of 3.3 μM; for inhibition at 10 µM: compound concentration of 10 μM; for inhibition at 30 µM: compound concentration of 30 μM
Experimental: as §1, §2

HepG2 (liver cancer) = test: Antiproliferative activity, CCK-8 cell viability; conditions: Homo sapiens, 72 h, read-out: Inhibition of Cancerous Cells, HepG2; for inhibition at 3.3 µM: compound concentration of 3.3 μM; for inhibition at 10 µM: compound concentration of 10 μM; for inhibition at 30 µM: compound concentration of 30 μM
Experimental: as §1, §2

[2] = test system: MDA-MB-231 (breast cancer); test: Antiproliferative activity, CCK-8 cell viability; conditions: Homo sapiens, 72 h, read-out: Inhibition of Cancerous Cells, MDA-MB-231; for inhibition at 3.3 µM: compound concentration of 3.3 μM; for inhibition at 10 µM: compound concentration of 10 μM; for inhibition at 30 µM: compound concentration of 30 μM
Experimental: as §1, §2

[3] = test system: A549 (lung adenocarcinoma); test: Antiproliferative activity, CCK-8 cell viability; conditions: Homo sapiens, 72 h, read-out: Inhibition of Cancerous Cells, A549; for inhibition at 3.3 µM: compound concentration of 3.3 μM; for inhibition at 10 µM: compound concentration of 10 μM; for inhibition at 30 µM: compound concentration of 30 μM
Experimental: as §1, §2

[4] = test system: B16F10 (malignant melanoma); test: Antiproliferative activity, CCK-8 cell viability; conditions: Mus musculus, B16-F10, 72 h, read-out: Inhibition of Cancerous Cells, B16F10; for inhibition at 3.3 µM: compound concentration of 3.3 μM; for inhibition at 10 µM: compound concentration of 10 μM; for inhibition at 30 µM: compound concentration of 30 μM
Experimental: as §1, §2

[5] = test system: alpha-smooth muscle actin (α-SMA); test: Inhibition of TGF-β induced expression of alpha-smooth muscle actin in CFSC cells (western blot); conditions: compound at 10 μM, TGF-β (10 ng/mL), 24 hours
Experimental: The ability of a compound to inhibit the TGF-β induced expression of alpha-smooth muscle actin (α-SMA) was evaluated in CCl4-treated fat storing (CFSC) cells. α-SMA is considered as a reliable marker of hepatic stellate cell activation and a key biomarker for liver fibrosis.
CFSC cells maintained in a DMEM medium supplemented with 10% fetal bovine serum were seeded to 12-well culture dishes and grown to a confluence of 60-70% the next day. Culture was changed to a serum-free DMEM medium and the cells were treated with the compound at 10 μM in the presence of TGF-β (10 ng/mL). The cells were incubated for another 24 hours. All culture was maintained at 37° C. in 5% carbon dioxide.
An NP-40 lysate solution (50 mM Tris, pH 7.4, 150 mM NaCl, 1% NP-40) with EDTA free cocktail added was used to lyse the cells on ice for 30 min. The lysate was collected and centrifuged at 4° C. for 10 min at 12,000 rpm. The pellet was discarded and the supernatant was transferred to a new tube. The cell lysate was loaded with 5× loading buffer and boiled for 10 min, resolved by 10% SDS-polyacrylamide gel electrophoresis (SDS-PAGE), and transferred to a PVDF membrane. The membrane was blocked with 5% skim milk in Tris-buffered saline and TWEEN® 20 (TBST; 10 mM Tris-HCl, pH 8.0, 150 mM NaCl, 0.1% TWEEN® 20) for 1 h at room temperature and then incubated with α-SMA and β-actin antibodies overnight at 4° C. After washing twice with TBST, the membrane was probed with a […] anti-immunoglobulin (1:5000 dilution) for 1 h at room temperature. After two subsequent rinses in TBST, immunoreactive products were reacted with ECL and visualized by a UVP CHEMSTUDIO™ imaging system. The western blotting bands are quantitated using an ImageJ software. The percentage of inhibition was obtained by calculating the percentage decrease in the band intensity compared to the one treated with TGF-β only.
The results are summarized in Table 1, where A represents a value no less than 80/% inhibition, B represents a value less than 80% but no less than 50% inhibition, C represents a value less than 50% but no less than 30% inhibition, and D represents a value less than 30% inhibition with a compound at 10 μM.

Structure (SMILES) | inhibition at 3.3 µM [1] [%] | inhibition at 10 µM [1] [%] | inhibition at 30 µM [1] [%] | inhibition at 3.3 µM (SW480 (colon cancer)) [%] | inhibition at 10 µM (SW480 (colon cancer)) [%] | inhibition at 30 µM (SW480 (colon cancer)) [%] | inhibition at 3.3 µM (HeLa (cervical cancer)) [%] | inhibition at 10 µM (HeLa (cervical cancer)) [%] | inhibition at 30 µM (HeLa (cervical cancer)) [%] | inhibition at 3.3 µM (HepG2 (liver cancer)) [%] | inhibition at 10 µM (HepG2 (liver cancer)) [%] | inhibition at 30 µM (HepG2 (liver cancer)) [%] | inhibition at 3.3 µM [2] [%] | inhibition at 10 µM [2] [%] | inhibition at 30 µM [2] [%] | inhibition at 3.3 µM [3] [%] | inhibition at 10 µM [3] [%] | inhibition at 30 µM [3] [%] | inhibition at 3.3 µM [4] [%] | inhibition at 10 µM [4] [%] | other results
COc1cccc2c1C(CC(=O)O)=C(C)/C2=C/c1ccc(Oc2ccccc2)cc1 [Compound D28, 2-[(1Z)-4-Methoxy-1-(4-(phenoxy)benzylidene)-2-methyl-1H-inden-3-yl]-acetic acid] | ≥ 50 | ≥ 50 | ≥ 50 | ≥ 50 | ≥ 50 | ≥ 50 | < 30 | < 30 | < 30 | ≥ 50 | ≥ 50 | ≥ 50 | 30 to 50 | 30 to 50 | ≥ 50 | 30 to 50 | 30 to 50 | ≥ 50 | 30 to 50 | ≥ 50 | inhibition at 30 µM [4]: ≥ 50%; inhibition at 10 µM [5]: 50 to 80%
CC1=C(CC(=O)O)c2cc(F)ccc2/C1=C\c1ccc(CN(Cc2ccccc2)c2ccccc2)cc1 [Compound A10, 2-[(1Z)-1-[(4-{[Benzyl(phenyl)amino]methyl}phenyl)methylidene]-5-fluoro-2-methyl-1H-inden-3-yl]acetic acid] | ≥ 50 | ≥ 50 | ≥ 50 | ≥ 50 | ≥ 50 | ≥ 50 | ≥ 50 | ≥ 50 | ≥ 50 | ≥ 50 | ≥ 50 | ≥ 50 | ≥ 50 | ≥ 50 | ≥ 50 | 30 to 50 | ≥ 50 | ≥ 50 | < 30 | ≥ 50 | inhibition at 30 µM [4]: ≥ 50%; inhibition at 10 µM [5]: ≥ 80%
CC1=C(CC(=O)O)c2cc(F)ccc2/C1=C\c1ccccc1Oc1ccccc1 [Compound D19, 2-[(1Z)-5-Fluoro-1-(2-(phenoxy)benzylidene)-2-methyl-1H-inden-3-yl]-acetic acid] | ≥ 50 | ≥ 50 | ≥ 50 | ≥ 50 | ≥ 50 | ≥ 50 | 30 to 50 | ≥ 50 | ≥ 50 | ≥ 50 | ≥ 50 | ≥ 50 | < 30 | < 30 | ≥ 50 | 30 to 50 | ≥ 50 | ≥ 50 | < 30 | 30 to 50 | inhibition at 30 µM [4]: ≥ 50%; inhibition at 10 µM [5]: < 30%
COc1ccc(Oc2cccc(/C=C3/C(C)=C(CC(=O)O)c4cc(F)ccc43)c2)cc1 [Compound D22, 2-[(1Z)-5-Fluoro-2-methyl-1-({3-[4-methoxyphenoxy]phenyl}methylidene)-1H-inden-3-yl]acetic acid] | < 30 | < 30 | ≥ 50 | < 30 | 30 to 50 | ≥ 50 | 30 to 50 | ≥ 50 | ≥ 50 | < 30 | 30 to 50 | ≥ 50 | ≥ 50 | ≥ 50 | ≥ 50 | 30 to 50 | 30 to 50 | ≥ 50 | < 30 | ≥ 50 | inhibition at 30 µM [4]: ≥ 50%; inhibition at 10 µM [5]: ≥ 80%
CC1=C(CC(=O)O)c2cc(F)ccc2/C1=C\c1cccc(CN(C)c2ccccc2)c1 [Compound A16, 2-[(1Z)-5-Fluoro-2-methyl-1-[(3-{[methyl(phenyl)amino]methyl}phenyl)-methylidene]-1H-inden-3-yl]acetic acid] | < 30 | ≥ 50 | ≥ 50 | ≥ 50 | ≥ 50 | ≥ 50 | 30 to 50 | ≥ 50 | ≥ 50 | < 30 | 30 to 50 | ≥ 50 | 30 to 50 | ≥ 50 | ≥ 50 | 30 to 50 | ≥ 50 | ≥ 50 | < 30 | < 30 | inhibition at 30 µM [4]: ≥ 50%; inhibition at 10 µM [5]: ≥ 80%
